Key:
mouse liver = assay: In vivo 13C-MR spectroscopy with surface coil over the liver in a mouse; parameters: species or system C57Bl/6 mouse; details: 175 μl of about 50 mM imaging medium injected over 6 s; liver region, 2.4 T, 10 spectra, repetition time 5 s
Protocol: 175 μl of an imaging medium comprising hyperpolarised sodium ^13C1-α-ketoisocaproate which was prepared as described in Example 1 was injected into a C57Bl/6 mouse over a time period of 6 s. The sodium ^13C1-α-ketoisocaproate concentration in said imaging medium was about 50 mM. A 12 mm surface coil (tuned for carbon) was positioned over the mouse to cover the liver region and signals of ^13C-α-ketoisocaproate and ^13C-leucine were detected by ^13C-MR spectroscopy which was carried out in a 2.4 T Bruker spectrometer to generate a metabolic profile. A total of 10 ^13C-spectra were acquired with a repetition time of 5 s and 30 degree RF pulses. In this Example, the ^13C-leucine signal is approximately 1% of the ^13C-α-ketoisocaproate signal.

[1] = test system: subcutaneous mouse lymphoma (EL-4); format: in vivo
Protocol: EL-4 cells were injected into a C57Bl/6 mouse to generate a subcutaneous mouse lymphoma. 175 μl of an imaging medium comprising hyperpolarised sodium ^13C1-α-ketoisocaproate which was prepared as described in Example 2 was injected into the mouse over a time period of 6 s. The sodium ^13Ci-α-ketoisocaproate concentration in said imaging medium was about 50 mM. A 20 mm surface coil (tuned for carbon) was positioned over the subcutaneous tumour and signals of ^13C-α-ketoisocaproate and ^13C-leucine were detected by ^13C-MR spectroscopy which was carried out using a 2.4 T Bruker spectrometer to generate a metabolic profile of the tumour and the surrounding healthy tissue. A ^13C-chemical shift image was acquired with the following parameters: FOV 35×35 mm^2×10 mm, matrix size 16×16, 10 degree RF pulse, TR=35 ms. Total acquisition time was 11 seconds (die to triggering on breathing) and the chemical shift imaging started 15 seconds after the start of the injection of the imaging medium. Omniscan™ (GE Healthcare)—enhanced proton imaging was performed to confirm the tumour position and perfusion.

[2] = Tolerability in the animal models used; format: in vivo; details: animal models of the Examples (mouse, rat)
Protocol: In another preferred embodiment, the imaging medium comprising hyperpolarised ^13C-α-ketoisocaproate is administered repeatedly, thus allowing dynamic studies.

[3] = 175 μl of about 50 mM imaging medium, chemical shift imaging started 15 s after start of injection, 2.4 T

Molecule: CC(C)CC(=O)[13C](=O)[O-].[Na+] [sodium ^13C1-α-ketoisocaproate]
- 13C-leucine signal as share of the 13C-α-ketoisocaproate signal (mouse liver): approximately 1%
- 13C-leucine distribution [1, 3]: confined to the tumour area
- 13C-α-ketoisocaproate signal distribution [1, 3]: the highest in the large blood vessels
- ratio image (13C-leucine to 13C-α-ketoisocaproate) ([1]; confirmed by Omniscan-enhanced proton image): defines the tumour area

Molecule: ^13C-α-ketoisocaproate [hyperpolarised ^13C-α-ketoisocaproate]
- tolerability [2]: well tolerated

From US20110038804A1, “MR IMAGING AGENT, IMAGING MEDIUM AND METHODS OF IMAGING WHEREIN SUCH AN IMAGING MEDIUM IS USED” (priority 2007, published 2011)
